{"source": "ChEMBL document CHEMBL1136216", "about": "“Potent quinoxaline-based inhibitors of PDGF receptor tyrosine kinase activity. Part 2: the synthesis and biological activities of RPR127963 an orally bioavailable inhibitor” (Bioorg Med Chem Lett, 2003)", "key": {"[1]": {"target": "T1, Platelet-derived growth factor receptor (Homo sapiens, UniProt P09619+P16234)", "experiment": "Inhibition of Platelet-derived growth factor receptor", "assay_type": "protein-complex assay"}, "[2]": {"target": "T1, Platelet-derived growth factor receptor", "experiment": "Inhibition of Platelet-derived growth factor receptor at 1 uM", "assay_type": "protein-complex assay"}, "[3]": {"target": "Macrophage colony-stimulating factor 1 receptor (Homo sapiens) (UniProt P07333)", "sequence (P07333 whole entry)": "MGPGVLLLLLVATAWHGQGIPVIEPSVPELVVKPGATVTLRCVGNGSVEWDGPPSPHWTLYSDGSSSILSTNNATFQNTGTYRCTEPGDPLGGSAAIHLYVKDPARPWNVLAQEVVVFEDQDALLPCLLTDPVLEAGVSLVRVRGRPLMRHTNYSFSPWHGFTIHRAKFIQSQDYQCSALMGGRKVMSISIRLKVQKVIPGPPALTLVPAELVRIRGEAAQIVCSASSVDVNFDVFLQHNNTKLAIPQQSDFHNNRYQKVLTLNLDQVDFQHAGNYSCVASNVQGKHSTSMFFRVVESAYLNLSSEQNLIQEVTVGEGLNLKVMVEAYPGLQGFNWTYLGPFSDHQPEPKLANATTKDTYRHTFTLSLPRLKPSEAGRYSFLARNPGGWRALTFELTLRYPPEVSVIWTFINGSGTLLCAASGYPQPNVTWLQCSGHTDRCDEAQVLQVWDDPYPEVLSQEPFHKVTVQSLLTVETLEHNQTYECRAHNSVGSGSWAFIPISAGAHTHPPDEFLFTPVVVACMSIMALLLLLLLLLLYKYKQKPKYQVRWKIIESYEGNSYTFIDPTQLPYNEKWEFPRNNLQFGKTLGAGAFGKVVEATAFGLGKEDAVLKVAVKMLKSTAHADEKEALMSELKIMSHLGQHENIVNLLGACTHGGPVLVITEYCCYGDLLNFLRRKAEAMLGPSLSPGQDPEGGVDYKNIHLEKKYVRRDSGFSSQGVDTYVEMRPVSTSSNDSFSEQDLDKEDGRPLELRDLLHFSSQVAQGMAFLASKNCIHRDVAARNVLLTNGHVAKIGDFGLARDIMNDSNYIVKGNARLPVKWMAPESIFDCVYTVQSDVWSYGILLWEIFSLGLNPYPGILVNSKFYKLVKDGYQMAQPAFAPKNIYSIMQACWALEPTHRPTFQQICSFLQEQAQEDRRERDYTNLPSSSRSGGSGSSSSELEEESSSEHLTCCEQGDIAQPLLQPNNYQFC", "experiment": "Inhibition of Colony stimulating factor 1 receptor at 30 uM"}, "[4]": {"experiment": "% Bioavailability after 1 day of the drug administration in rats", "assay_type": "ADME, organism-based", "settings": "rat, in vivo"}, "[5]": {"experiment": "% Bioavailability after 4 day of the drug administration in rats", "assay_type": "ADME, organism-based", "settings": "rat, in vivo"}, "[6]": {"target": "cAMP-dependent protein kinase (PKA) (Homo sapiens) (UniProt P22694+P17612+P22612)", "experiment": "Inhibition of Protein kinase A at 100 uM", "assay_type": "protein assay"}, "[7]": {"experiment": "Inhibition of Collagen production", "assay_type": "functional"}, "[8]": {"target": "Tyrosine-protein kinase JAK2 (Homo sapiens, UniProt O60674)", "experiment": "Inhibition of Janus kinase 2"}, "[9]": {"target": "Hepatocyte growth factor receptor (Homo sapiens) (UniProt P08581)", "experiment": "Inhibition of Hepatocyte growth factor receptor at 30 uM", "assay_type": "cell-based"}, "[10]": {"target": "Tyrosine-protein kinase SYK (Homo sapiens) (UniProt P43405)", "experiment": "Inhibition of Syk tyrosine kinase at 10 uM"}, "[11]": {"target": "T2, Tyrosine-protein kinase JAK3 (Homo sapiens, UniProt P52333)", "T2 sequence (P52333 whole entry)": "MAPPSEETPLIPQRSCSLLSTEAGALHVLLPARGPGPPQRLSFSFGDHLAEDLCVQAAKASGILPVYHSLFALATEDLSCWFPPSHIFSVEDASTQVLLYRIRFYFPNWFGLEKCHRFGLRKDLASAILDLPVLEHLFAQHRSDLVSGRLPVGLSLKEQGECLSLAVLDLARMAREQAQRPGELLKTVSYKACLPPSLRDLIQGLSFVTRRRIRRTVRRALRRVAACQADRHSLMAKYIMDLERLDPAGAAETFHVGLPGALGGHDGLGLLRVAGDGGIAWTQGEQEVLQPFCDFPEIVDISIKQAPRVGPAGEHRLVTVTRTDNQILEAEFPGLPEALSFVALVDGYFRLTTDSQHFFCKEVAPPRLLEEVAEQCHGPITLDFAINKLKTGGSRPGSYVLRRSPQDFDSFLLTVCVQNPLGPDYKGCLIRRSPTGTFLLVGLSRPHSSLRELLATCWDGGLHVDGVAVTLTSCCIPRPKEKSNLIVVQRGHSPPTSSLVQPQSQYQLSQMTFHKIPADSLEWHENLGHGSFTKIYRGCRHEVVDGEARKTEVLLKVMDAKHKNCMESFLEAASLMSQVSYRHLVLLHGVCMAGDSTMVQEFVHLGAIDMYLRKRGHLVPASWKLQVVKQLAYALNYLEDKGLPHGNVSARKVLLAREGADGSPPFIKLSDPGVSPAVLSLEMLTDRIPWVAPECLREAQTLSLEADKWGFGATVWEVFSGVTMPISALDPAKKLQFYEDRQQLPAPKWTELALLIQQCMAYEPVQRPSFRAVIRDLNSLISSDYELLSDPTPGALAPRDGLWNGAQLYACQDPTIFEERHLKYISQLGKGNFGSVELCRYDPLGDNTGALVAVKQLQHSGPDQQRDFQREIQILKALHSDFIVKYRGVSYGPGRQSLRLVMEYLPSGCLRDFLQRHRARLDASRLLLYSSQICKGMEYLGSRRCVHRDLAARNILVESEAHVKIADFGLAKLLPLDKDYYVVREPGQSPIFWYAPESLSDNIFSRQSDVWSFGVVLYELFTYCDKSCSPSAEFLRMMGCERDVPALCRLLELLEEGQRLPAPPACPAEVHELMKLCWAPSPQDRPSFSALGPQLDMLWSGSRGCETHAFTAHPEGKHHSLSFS", "experiment": "Inhibition of Janus kinase 3"}, "[12]": {"target": "Insulin-like growth factor 1 receptor (Homo sapiens, UniProt P08069)", "experiment": "Inhibitory concentration against IGF kinase was determined."}, "[13]": {"target": "Protein kinase C (PKC) (Homo sapiens) (UniProt O94806+P41743+P17252+P05129+Q05655+P05771+Q05513+Q02156+P24723+Q15139+Q04759)", "experiment": "Inhibition of Protein kinase C at 100 uM", "assay_type": "protein assay"}, "[14]": {"target": "c-Jun N-terminal kinase, JNK (Homo sapiens, UniProt P45983+P53779+P45984)", "experiment": "Inhibition of JNK, c-Jun N-terminal kinase", "assay_type": "protein assay"}, "[15]": {"target": "T3, Tyrosine-protein kinase ZAP-70 (Homo sapiens) (UniProt P43403)", "T3 sequence (whole entry)": "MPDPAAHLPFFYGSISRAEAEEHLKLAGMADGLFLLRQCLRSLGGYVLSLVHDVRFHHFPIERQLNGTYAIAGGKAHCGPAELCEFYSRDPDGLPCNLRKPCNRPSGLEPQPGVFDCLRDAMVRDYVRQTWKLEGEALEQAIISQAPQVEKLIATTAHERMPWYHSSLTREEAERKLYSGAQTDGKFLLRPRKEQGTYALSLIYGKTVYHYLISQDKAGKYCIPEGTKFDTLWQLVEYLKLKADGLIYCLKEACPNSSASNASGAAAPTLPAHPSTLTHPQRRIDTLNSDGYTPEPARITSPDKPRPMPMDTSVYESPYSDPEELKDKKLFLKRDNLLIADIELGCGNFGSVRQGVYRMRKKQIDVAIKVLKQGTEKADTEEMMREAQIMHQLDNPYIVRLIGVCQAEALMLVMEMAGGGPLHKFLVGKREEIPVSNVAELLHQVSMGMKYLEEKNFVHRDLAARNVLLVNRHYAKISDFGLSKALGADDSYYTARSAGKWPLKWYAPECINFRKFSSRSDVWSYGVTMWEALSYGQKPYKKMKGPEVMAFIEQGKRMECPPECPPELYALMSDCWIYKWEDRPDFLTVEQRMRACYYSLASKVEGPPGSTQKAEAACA", "experiment": "Inhibition of Zeta-chain (TCR) associated protein kinase 70kDa, Zap70 at 10 uM"}, "[16]": {"target": "Vascular endothelial growth factor receptor (Homo sapiens) (UniProt P17948+P35916+P35968)", "sequence (P17948 whole entry, looked up)": "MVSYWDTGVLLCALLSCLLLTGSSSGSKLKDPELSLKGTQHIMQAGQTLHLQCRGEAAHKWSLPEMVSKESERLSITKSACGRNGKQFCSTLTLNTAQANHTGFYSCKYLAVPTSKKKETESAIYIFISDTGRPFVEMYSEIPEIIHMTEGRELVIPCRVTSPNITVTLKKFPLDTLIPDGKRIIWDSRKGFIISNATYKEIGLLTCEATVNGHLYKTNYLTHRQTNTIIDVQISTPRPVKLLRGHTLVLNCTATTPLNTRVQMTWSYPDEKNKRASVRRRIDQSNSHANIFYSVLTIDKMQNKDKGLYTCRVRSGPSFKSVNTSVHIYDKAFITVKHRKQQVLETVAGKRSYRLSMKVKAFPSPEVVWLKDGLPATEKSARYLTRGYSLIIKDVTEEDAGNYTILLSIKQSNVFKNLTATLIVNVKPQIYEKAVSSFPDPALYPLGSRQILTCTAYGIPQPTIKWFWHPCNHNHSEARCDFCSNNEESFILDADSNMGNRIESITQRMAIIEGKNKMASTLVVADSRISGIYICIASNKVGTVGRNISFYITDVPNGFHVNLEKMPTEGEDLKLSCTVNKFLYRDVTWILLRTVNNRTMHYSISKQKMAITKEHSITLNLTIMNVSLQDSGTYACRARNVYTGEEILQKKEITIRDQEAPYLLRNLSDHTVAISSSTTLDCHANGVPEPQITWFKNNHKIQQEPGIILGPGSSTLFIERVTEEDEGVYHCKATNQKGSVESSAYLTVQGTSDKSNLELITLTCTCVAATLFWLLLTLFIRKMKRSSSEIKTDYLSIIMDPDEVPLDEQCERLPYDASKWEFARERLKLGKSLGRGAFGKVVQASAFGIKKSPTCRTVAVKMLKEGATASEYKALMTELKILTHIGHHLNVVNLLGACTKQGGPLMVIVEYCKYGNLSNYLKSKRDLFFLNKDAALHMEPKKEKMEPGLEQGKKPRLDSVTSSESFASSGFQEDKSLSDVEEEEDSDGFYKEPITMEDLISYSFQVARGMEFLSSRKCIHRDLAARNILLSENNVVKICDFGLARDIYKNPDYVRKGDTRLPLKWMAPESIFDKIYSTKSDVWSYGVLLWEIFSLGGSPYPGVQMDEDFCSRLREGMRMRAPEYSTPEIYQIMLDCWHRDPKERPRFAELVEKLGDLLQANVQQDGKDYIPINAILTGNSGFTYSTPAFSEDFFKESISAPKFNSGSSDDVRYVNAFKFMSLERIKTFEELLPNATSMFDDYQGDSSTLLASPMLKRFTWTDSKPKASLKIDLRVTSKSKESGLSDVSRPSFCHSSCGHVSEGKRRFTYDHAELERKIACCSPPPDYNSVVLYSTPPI", "sequence (P35916 whole entry, looked up)": "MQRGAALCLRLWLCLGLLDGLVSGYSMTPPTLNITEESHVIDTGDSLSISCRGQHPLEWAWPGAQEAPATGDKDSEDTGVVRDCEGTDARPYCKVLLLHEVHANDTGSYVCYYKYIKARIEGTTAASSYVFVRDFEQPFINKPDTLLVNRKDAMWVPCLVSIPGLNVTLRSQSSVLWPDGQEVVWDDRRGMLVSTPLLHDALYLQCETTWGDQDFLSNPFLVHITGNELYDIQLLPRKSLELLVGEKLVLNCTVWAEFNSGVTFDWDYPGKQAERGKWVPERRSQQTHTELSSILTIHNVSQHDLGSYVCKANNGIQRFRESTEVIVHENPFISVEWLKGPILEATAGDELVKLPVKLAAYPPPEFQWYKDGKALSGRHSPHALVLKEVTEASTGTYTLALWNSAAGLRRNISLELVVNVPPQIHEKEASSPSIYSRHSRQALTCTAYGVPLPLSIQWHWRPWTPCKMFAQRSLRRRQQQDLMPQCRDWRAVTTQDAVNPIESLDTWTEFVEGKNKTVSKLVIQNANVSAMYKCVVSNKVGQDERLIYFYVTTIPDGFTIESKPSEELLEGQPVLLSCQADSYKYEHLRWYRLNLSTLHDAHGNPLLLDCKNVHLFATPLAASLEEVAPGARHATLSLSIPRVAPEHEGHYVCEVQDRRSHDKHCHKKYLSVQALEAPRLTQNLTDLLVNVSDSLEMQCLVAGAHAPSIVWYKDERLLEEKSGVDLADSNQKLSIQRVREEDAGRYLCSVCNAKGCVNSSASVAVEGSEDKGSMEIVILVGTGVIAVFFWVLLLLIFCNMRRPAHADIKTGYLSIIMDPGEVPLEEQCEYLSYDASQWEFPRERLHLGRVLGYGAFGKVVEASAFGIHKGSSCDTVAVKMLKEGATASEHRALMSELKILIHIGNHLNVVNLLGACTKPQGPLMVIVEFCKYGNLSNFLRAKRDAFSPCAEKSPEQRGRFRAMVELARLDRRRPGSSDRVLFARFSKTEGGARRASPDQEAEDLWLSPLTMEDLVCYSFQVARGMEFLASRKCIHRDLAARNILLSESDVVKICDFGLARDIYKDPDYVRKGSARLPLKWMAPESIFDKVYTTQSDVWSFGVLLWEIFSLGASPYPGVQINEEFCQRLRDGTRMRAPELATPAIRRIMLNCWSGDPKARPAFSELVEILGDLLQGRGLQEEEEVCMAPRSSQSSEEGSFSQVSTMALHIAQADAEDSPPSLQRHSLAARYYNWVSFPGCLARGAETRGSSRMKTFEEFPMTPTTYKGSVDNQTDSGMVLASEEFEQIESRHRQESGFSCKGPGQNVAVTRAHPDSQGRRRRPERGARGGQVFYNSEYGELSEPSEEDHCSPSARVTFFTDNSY", "sequence (P35968 whole entry, looked up)": "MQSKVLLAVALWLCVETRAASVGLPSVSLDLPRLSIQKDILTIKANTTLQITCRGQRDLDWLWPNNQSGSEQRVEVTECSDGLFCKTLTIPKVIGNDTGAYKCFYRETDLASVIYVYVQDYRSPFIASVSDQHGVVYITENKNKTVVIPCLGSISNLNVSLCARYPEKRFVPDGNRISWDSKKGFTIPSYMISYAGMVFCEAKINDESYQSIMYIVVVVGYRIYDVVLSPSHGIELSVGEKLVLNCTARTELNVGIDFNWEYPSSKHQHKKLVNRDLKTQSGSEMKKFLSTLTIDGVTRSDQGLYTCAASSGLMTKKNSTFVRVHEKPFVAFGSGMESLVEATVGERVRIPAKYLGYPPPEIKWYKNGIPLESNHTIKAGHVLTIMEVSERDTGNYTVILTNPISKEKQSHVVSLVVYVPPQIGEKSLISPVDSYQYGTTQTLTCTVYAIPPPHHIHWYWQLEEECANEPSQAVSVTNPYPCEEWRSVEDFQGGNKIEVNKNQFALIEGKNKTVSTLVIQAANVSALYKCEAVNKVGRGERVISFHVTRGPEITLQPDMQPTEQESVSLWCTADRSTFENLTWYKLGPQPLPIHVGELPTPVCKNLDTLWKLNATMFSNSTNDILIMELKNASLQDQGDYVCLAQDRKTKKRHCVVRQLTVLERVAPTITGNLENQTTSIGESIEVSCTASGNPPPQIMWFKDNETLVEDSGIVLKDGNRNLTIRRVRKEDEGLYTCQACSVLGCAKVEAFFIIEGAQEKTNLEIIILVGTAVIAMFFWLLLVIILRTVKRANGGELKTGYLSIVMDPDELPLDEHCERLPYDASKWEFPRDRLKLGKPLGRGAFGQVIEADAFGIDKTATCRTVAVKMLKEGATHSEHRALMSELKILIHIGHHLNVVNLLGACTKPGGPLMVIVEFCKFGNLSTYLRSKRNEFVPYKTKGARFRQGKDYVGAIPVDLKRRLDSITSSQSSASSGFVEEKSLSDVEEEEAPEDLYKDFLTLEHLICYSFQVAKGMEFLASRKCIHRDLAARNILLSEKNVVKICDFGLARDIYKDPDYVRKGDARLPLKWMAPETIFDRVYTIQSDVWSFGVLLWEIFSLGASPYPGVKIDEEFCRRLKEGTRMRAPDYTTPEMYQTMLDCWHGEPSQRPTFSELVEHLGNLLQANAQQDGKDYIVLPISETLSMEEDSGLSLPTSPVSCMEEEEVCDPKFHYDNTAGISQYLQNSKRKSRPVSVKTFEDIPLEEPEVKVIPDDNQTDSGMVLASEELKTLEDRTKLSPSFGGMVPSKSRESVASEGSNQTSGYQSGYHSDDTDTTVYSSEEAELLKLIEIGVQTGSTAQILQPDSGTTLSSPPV", "experiment": "Inhibition of VEGF receptor kinase at 30 uM", "assay_type": "protein assay"}, "HASMC": {"test_system": "HASMC", "experiment": "Inhibition of mitogenesis in human aortic smooth muscle cells (HASMC)", "assay_type": "functional, cell-based"}, "[17]": {"target": "T1, Platelet-derived growth factor receptor", "experiment": "Inhibition of Platelet-derived growth factor receptor at 10 uM", "assay_type": "protein-complex assay"}, "[18]": {"experiment": "Bioavailability in rat after 4 day dosing", "assay_type": "ADME, organism-based", "settings": "in vivo"}, "[19]": {"experiment": "Bioavailability in rat after 1 day dosing", "assay_type": "ADME, organism-based", "settings": "in vivo"}}}
{"smiles": "COC(=O)C1CCC(Nc2cnc3cc(OC)c(OC)cc3n2)CC1", "note": "(stereo not drawn)", "values": [{"measurement": "IC50", "setting": "[1]", "result": 49, "unit": "nM"}]}
{"smiles": "COc1cc2ncc(NC3CCC(C(=O)N4CCN(C)CC4)CC3)nc2cc1OC", "note": "(stereo not drawn)", "values": [{"measurement": "inhibition", "setting": "[2]", "result": 10, "unit": "%"}]}
{"smiles": "COc1cc2ncc(N[C@H]3CC[C@H](O)CC3)nc2cc1OC", "values": [{"measurement": "inhibition", "setting": "[3]", "result": 2, "unit": "%"}, {"measurement": "bioavailability", "setting": "[4]", "result": 82, "unit": "%"}, {"measurement": "bioavailability", "setting": "[5]", "result": 72, "unit": "%"}, {"measurement": "inhibition", "setting": "[6]", "result": 3, "unit": "%"}, {"measurement": "IC50", "setting": "[7]", "result": 389, "unit": "nM"}, {"measurement": "IC50", "setting": "[8]", "result": "> 50000", "unit": "nM"}, {"measurement": "inhibition", "setting": "[9]", "result": 17, "unit": "%"}, {"measurement": "inhibition", "setting": "[10]", "result": 54, "unit": "%"}, {"measurement": "IC50", "setting": "[11]", "result": "> 50000", "unit": "nM"}, {"measurement": "IC50", "setting": "[12]", "result": "> 10000", "unit": "nM"}, {"measurement": "inhibition", "setting": "[13]", "result": 7, "unit": "%"}, {"measurement": "IC50", "setting": "[14]", "result": "> 50000", "unit": "nM"}, {"measurement": "inhibition", "setting": "[15]", "result": 0, "unit": "%"}, {"measurement": "inhibition", "setting": "[16]", "result": 0, "unit": "%"}]}
{"smiles": "COc1cc2ncc(N[C@@H]3CC[C@H](O)[C@@H](C)C3)nc2cc1OC", "values": [{"measurement": "IC50", "setting": "HASMC", "result": 134, "unit": "nM"}, {"measurement": "IC50", "setting": "[1]", "result": 18, "unit": "nM"}]}
{"smiles": "COc1cc2ncc(N[C@H]3CC[C@@H](C(=O)OC)CC3)nc2cc1OC", "values": [{"measurement": "IC50", "setting": "[1]", "result": 28, "unit": "nM"}]}
{"smiles": "COc1cc2ncc(N3C(=O)C4CCC3CC4)nc2cc1OC", "values": [{"measurement": "inhibition", "setting": "[17]", "result": 14, "unit": "%"}]}
{"smiles": "COc1cc2ncc(NC3CCC(C(N)=O)CC3)nc2cc1OC", "note": "(stereo not drawn)", "values": [{"measurement": "IC50", "setting": "[1]", "result": 930, "unit": "nM"}]}
{"smiles": "COc1cc2ncc(NC3CCCCC3)nc2cc1OC", "values": [{"measurement": "bioavailability", "setting": "[18]", "result": 16, "unit": "%"}, {"measurement": "bioavailability", "setting": "[19]", "result": 17, "unit": "%"}]}
{"smiles": "COc1cc2ncc(N[C@@H]3CC4CC3C[C@H]4O)nc2cc1OC", "note": "(stereo partly drawn)", "values": [{"measurement": "IC50", "setting": "HASMC", "result": 164, "unit": "nM"}, {"measurement": "IC50", "setting": "[1]", "result": 24, "unit": "nM"}]}
{"smiles": "COc1cc2ncc(N[C@H]3CC[C@H](C(=O)OC)CC3)nc2cc1OC", "values": [{"measurement": "IC50", "setting": "[1]", "result": 345, "unit": "nM"}]}
{"smiles": "CNC(=O)C1CCC(Nc2cnc3cc(OC)c(OC)cc3n2)CC1", "note": "(stereo not drawn)", "values": [{"measurement": "IC50", "setting": "[1]", "result": 3100, "unit": "nM"}]}
{"smiles": "COc1cc2cc(-c3ccsc3)cnc2cc1OC", "values": [{"measurement": "bioavailability", "setting": "[18]", "result": 21, "unit": "%"}, {"measurement": "bioavailability", "setting": "[19]", "result": 49, "unit": "%"}]}
{"smiles": "COc1cc2ncc(NC3CCCC(N)C3)nc2cc1OC", "note": "(stereo not drawn)", "values": [{"measurement": "inhibition", "setting": "[2]", "result": -9, "unit": "%"}]}
{"smiles": "COc1cc2ncc(NC3CCC(C(=O)O)CC3)nc2cc1OC", "note": "(stereo not drawn)", "values": [{"measurement": "inhibition", "setting": "[2]", "result": 15, "unit": "%"}]}
{"smiles": "COc1cc2ncc(N[C@H]3CC[C@@H](O)[C@H](C)C3)nc2cc1OC", "values": [{"measurement": "IC50", "setting": "HASMC", "result": "> 10000", "unit": "nM"}, {"measurement": "inhibition", "setting": "[2]", "result": 5, "unit": "%"}]}
